The text below walks through data of article PMC4742234, “Screening of Drug Metabolizing Enzymes for the Ginsenoside Compound K In Vitro: An Efficient Anti-Cancer Substance Originating from Panax Ginseng” (PLoS ONE, 2016).

In general, IC50 refers to the midpoint of a concentration-inhibition curve. Low values mean inhibition by little substance, high ones a need for much substance.

Type in all cases: in vitro ADME
One series addresses T1, CYP2D6 (Homo sapiens, UniProt P10635).
T1 construct: tissue Cypex Ltd. (U.K.); host or cells: pooled human liver microsomes
The experiment in a line: Inhibition of CYP2D6 (metoprolol α-hydroxylation) by CK in HLMs. The method, then:
(§1) The method was conducted according to our previous study with some modifications. The CYP isoform-specific probe reactions used were phenacetin O-deethylation (for CYP1A2), coumarin 7-hydroxylation (for CYP2A6), tolbutamide 4-hydroxylation (for CYP2C9), metoprolol α-hydroxylation (for CYP2D6), chlorzoxazone 6-hydroxylation (for CYP2E1),S-Mephenytoin 4-hydroxylation (for CYP2C19), and midazolam 1-hydroxylation (for CYP3A4). The kinetic study of CK was conducted with HLMs. A 0.2 mL incubation mixture that consisted of CK (as a substrate), the HLMs (0.5 mg/mL) or CYP isoforms (10 pmol), and 0.1 M sodium phosphate buffer (pH 7.4) was pre-warmed for 5 min at 37°C. The reaction was initiated by the addition of 1 mg/mL triphosphopyridine nucleotide (NADPH). All the reagents were dissolved in methanol, and the final solvent concentration in all incubations (including the controls) was 1%. The final incubations were performed in a shaking water bath (37°C) for 30 min. The reactions were stopped by adding 0.2 mL ice-cold acetonitrile, which contains irbesartan (114.9 ng/mL) as the internal standard. The samples were vortexed for 5 min. After centrifugation (12000×g for 10 min), the supernatants were transferred, and aliquots of 20 μL were injected into the HPLC-MS/MS system for analysis.
(§2) CK (10–100 μM) and a single CYP isoform-specific substrate (with a concentration similar to its corresponding Kmvalue) were used to determine the inhibitory effect of CK on specific CYP isoforms as described in detail previously. Substrates including phenacetin, coumarin, tolbutamide, metoprolol, chlorzoxazone, S-Mephenytoin, and midazolam were used at concentrations of 10, 5, 100, 7.5, 40, 100, and 5 μM, respectively. All incubation conditions were the same as mentioned above. The inhibitory effects on the CYP isoforms were investigated individually by incubating the HLMs in the absence or presence of CK. […]

A further series concerns the target CYP3A4 (Homo sapiens, UniProt P08684). The experiment in a line: Effect of specific inhibitor ketoconazole on CK metabolism in HLMs. Further details: tissue Cypex Ltd. (U.K.); host or cells: pooled human liver microsomes. The settings on record: CK 50 μM, in the presence of ketoconazole 1 μM. The protocol: (§3) The method was conducted according to our previous study with some modifications. The CYP isoform-specific probe reactions used were phenacetin O-deethylation (for CYP1A2), coumarin 7-hydroxylation (for CYP2A6), tolbutamide 4-hydroxylation (for CYP2C9), metoprolol α-hydroxylation (for CYP2D6), chlorzoxazone 6-hydroxylation (for CYP2E1),S-Mephenytoin 4-hydroxylation (for CYP2C19), and midazolam 1-hydroxylation (for CYP3A4). The kinetic study of CK was conducted with HLMs. A 0.2 mL incubation mixture that consisted of CK (as a substrate), the HLMs (0.5 mg/mL) or CYP isoforms (10 pmol), and 0.1 M sodium phosphate buffer (pH 7.4) was pre-warmed for 5 min at 37°C. The reaction was initiated by the addition of 1 mg/mL triphosphopyridine nucleotide (NADPH). […]
(§4) To screen the specific CYP isoform responsible for the CK metabolism, we determined the inhibitory effect of specific inhibitors on the metabolism of CK in the HLMs as described in detail previously. […] The inhibitory effects of the above specific inhibitors on the metabolic clearance rate of CK were evaluated separately to screen the CYP isoforms responsible for the CK metabolism. The relative activity of the CYP isoforms was calculated by dividing the peak area of CK when incubated with the inhibitor by that of CK from the negative controls. […]

The next series deals with CYP2C9 (Homo sapiens, UniProt P11712). Briefly: Effect of specific inhibitor sulfaphenazole on CK metabolism in HLMs. Also noted: tissue Cypex Ltd. (U.K.); host or cells: pooled human liver microsomes. The settings on record: CK 50 μM, in the presence of sulfaphenazole 1 μM. The method, then: as §3, §4
In a further series the target is T2, CYP2A6 (Homo sapiens, UniProt P11509).
T2 construct: tissue Cypex Ltd. (U.K.); host or cells: pooled human liver microsomes
T2 sequence (P11509 1-494): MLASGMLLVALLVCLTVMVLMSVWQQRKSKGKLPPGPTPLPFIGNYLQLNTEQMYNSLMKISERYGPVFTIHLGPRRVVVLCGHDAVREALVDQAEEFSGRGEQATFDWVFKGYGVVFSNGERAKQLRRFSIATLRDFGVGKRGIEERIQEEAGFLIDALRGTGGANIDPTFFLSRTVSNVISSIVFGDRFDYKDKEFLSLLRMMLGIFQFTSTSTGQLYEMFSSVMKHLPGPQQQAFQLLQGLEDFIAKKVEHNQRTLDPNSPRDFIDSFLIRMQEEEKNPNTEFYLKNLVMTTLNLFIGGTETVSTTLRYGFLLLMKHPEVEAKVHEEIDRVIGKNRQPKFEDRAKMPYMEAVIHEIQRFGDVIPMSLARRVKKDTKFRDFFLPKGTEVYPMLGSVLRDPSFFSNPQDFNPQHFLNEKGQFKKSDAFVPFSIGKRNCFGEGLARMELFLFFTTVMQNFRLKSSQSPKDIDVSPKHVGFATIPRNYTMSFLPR
Briefly: Inhibition of CYP2A6 (coumarin 7-hydroxylation) by CK in HLMs. The protocol: as §1, §2

[1] abbreviates: classified by IC50 according to Kong et al.

Values joined by “and” are separate entries in the source; they are usually repeats but may differ in a detail not shown here. Identical values can stand only once. “Also recorded” adds a separate entry of the source.

T1 sequence (P10635 whole entry): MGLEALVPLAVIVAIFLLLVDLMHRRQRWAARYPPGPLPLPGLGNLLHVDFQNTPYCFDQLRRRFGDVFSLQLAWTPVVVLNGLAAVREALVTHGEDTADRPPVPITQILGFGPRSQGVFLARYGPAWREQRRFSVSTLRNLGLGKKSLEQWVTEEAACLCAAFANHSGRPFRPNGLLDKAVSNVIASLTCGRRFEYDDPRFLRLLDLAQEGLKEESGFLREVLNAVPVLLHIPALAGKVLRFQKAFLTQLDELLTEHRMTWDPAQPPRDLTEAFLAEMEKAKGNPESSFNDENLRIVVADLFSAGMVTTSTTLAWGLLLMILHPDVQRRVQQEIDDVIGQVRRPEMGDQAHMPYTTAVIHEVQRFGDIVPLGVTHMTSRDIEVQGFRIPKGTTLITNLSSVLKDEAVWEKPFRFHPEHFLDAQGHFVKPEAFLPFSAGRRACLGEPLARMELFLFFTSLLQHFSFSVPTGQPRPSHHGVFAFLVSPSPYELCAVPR
CYP3A4, sequence (P08684 whole entry, canonical isoform): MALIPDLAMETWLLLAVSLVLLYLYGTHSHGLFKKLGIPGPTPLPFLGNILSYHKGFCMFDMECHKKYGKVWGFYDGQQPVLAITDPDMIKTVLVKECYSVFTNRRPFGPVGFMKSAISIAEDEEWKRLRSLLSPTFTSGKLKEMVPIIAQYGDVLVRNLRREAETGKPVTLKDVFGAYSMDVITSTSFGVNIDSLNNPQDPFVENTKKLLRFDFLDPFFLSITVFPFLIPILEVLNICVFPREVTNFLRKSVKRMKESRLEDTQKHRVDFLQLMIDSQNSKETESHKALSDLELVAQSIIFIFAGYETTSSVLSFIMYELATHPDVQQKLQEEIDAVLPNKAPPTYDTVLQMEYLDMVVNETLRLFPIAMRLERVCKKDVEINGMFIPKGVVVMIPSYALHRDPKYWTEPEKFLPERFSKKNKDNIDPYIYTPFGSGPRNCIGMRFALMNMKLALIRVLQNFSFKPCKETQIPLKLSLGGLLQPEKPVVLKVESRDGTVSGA
CYP2C9, sequence (P11712 whole entry): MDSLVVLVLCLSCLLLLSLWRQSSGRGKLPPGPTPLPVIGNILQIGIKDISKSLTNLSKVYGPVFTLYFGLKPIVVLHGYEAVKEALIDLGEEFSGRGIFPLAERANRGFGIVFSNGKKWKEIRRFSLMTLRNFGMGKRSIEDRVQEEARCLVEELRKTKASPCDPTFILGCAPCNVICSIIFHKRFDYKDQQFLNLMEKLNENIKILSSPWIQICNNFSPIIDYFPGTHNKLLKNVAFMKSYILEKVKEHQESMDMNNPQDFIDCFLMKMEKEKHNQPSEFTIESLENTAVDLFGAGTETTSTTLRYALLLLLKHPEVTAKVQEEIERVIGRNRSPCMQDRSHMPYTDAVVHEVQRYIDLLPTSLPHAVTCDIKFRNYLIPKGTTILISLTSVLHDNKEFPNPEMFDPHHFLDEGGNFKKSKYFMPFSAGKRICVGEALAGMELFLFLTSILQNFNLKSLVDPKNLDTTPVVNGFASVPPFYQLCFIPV

As for `CC(C)=CCC[C@](C)(OC1O[C@H](CO)[C@@H](O)[C@H](O)[C@H]1O)[C@H]1CC[C@]2(C)[C@@H]1[C@H](O)C[C@@H]1[C@@]3(C)CC[C@H](O)C(C)(C)[C@@H]3CC[C@]12C` (stereo partly drawn) [CK, 20-O-β-(D-glucopyranosyl)-20(S)-protopanaxadiol], the “inhibitory effect on the activity of CYP2D6” value against CYP2D6 (HLMs, CK 10–100 μM) was “minimal; also recorded: negligible”. The IC50 was over 100 µM against CYP2D6 (HLMs, metoprolol 7.5 μM, CK 10–100 μM) and over 100 µM at CYP2A6 (HLMs, coumarin 5 μM, CK 10–100 μM). On CYP2D6 (setting [1]), the “inhibitor potency class for CYP2D6” value is reported as “weak (weak, if IC50≥100 μg/mL or ≥50 μM)”. The “metabolic clearance rate (MCR) of CK, of that of the control” value at CYP3A4 is 74.6±28.1% and 74.6%; at CYP2C9, 73.5±20.9% and 73.5%. Also, the “inhibitory effect on the activity of CYP2A6” value at CYP2A6 (HLMs, CK 10–100 μM) is listed as “minimal; also recorded: negligible”. For the same molecule, on CYP2A6 (setting [1]), the “inhibitor potency class for CYP2A6” value was “weak (weak, if IC50≥100 μg/mL or ≥50 μM)”.
